Data taken from patent US20190124924A1, “FUNGAL CONTROL OF WHITE MOLD” (DOW AGROSCIENCES LLC, priority 2015, published 2019).

Legend:
Sclerotinia sclerotiorum [1] = assay: Field trials in oilseed rape, incidence of white mold and yield; type: in vivo; details: single application; for Yield of Oilseed Rape: untreated 4.08; for Percent (%) Incidence of Sclerotinia sclerotiorum at B65-B67 Growth Stage in Oilseed Rape: untreated 55
Sclerotinia sclerotiorum [2] = assay: Inhibition of Sclerotinia sclerotiorum on detached soybean leaves; type: in vivo; details: read-out: Percent (%) Inhibition of Sclerotinia sclerotiorum on Detached Soybean Leaves
Procedure: Evaluation of Inhibition of Sclerotinia sclerotiorum on Detached Soybean Leaves: Detached leaves of soybean were immersed for 3 seconds (s) in fungicide solutions at different concentrations and placed in Petri dishes. […] Symptoms were assessed for percent disease severity. Three leaves per plate with three replicates in a completely randomized design. Treatments consisted of fungicide compounds including Formula I, fluazinam, thiophanate-methyl, and procymidone.

Sclerotinia sclerotiorum [3] = assay: Field trial in dry bean, incidence of white mold; type: in vivo; details: two applications R5 and R6, untreated 12.5
Procedure: A field trial in dry bean was carried out in the state of Sao Paulo, Brazil. Two applications of the fungicides were done at growth stages R5 (first bloom) and R6 (full bloom) by using a carbon dioxide (CO2) backpack sprayer at an application rate of 600 liters per hectare (Uha). […] Treatments consisted of fungicide compounds including Formula I, fluazinam, thiophanate-methyl, and procymidone.

Sclerotinia sclerotiorum [4] = assay: Inhibition of mycelial growth by fungicides in Petri dishes (growth medium + fungicide); type: cell-based; details: for inhibition at 0.1 ppm / inhibition at 1 ppm / inhibition at 10 ppm / inhibition at 100 ppm: Sclerotinia sclerotiorum, 192 h, read-out: Percent (%) Inhibition of Mycelial Growth of Sclerotinia sclerotiorum
Procedure: Evaluation of Inhibition of Mycelial Growth by Fungicides (Sclerotinia sclerotiorum; Bayer code: […]): The growth inhibition of the fungus (Sclerotinia sclerotiorum) was assessed in Petri dishes containing the growth medium+fungicide at different concentrations. […] The number of sclerotia were counted. A completely randomized design with three replicates was used. Treatments consisted of fungicide compounds including Formula I, fluazinam, thiophanate-methyl, and procymidone.

| Compound | Yield of Oilseed Rape (Sclerotinia sclerotiorum [1]; 150 g ai/ha) | Percent (%) Incidence of Sclerotinia sclerotiorum at B65-B67 Growth Stage in Oilseed Rape (Sclerotinia sclerotiorum [1]; 150 g ai/ha) | Number of Sclerotinia Formed per Colony (Sclerotinia sclerotiorum [4]; 0.1 ppm) | Number of Sclerotinia Formed per Colony (Sclerotinia sclerotiorum [4]; 1 ppm) | Number of Sclerotinia Formed per Colony (Sclerotinia sclerotiorum [4]; 10 ppm) | Number of Sclerotinia Formed per Colony (Sclerotinia sclerotiorum [4]; 100 ppm) | inhibition at 0.1 ppm (Sclerotinia sclerotiorum [2]; 0.1 ppm, leaves immersed 3 s) | inhibition at 1 ppm (Sclerotinia sclerotiorum [2]; 1 ppm, leaves immersed 3 s) | inhibition at 10 ppm (Sclerotinia sclerotiorum [2]; 10 ppm, leaves immersed 3 s) | inhibition at 100 ppm (Sclerotinia sclerotiorum [2]; 100 ppm, leaves immersed 3 s) | inhibition at 0.1 ppm (Sclerotinia sclerotiorum [4]; 0.1 ppm, 22° C., 8 days) | inhibition at 1 ppm (Sclerotinia sclerotiorum [4]; 1 ppm, 22° C., 8 days) | inhibition at 10 ppm (Sclerotinia sclerotiorum [4]; 10 ppm, 22° C., 8 days) | inhibition at 100 ppm (Sclerotinia sclerotiorum [4]; 100 ppm, 22° C., 8 days) | further results |
| --- | --- | --- | --- | --- | --- | --- | --- | --- | --- | --- | --- | --- | --- | --- | --- |
| OC(Cc1ccccc1Cl)(Cn1nc[nH]c1=S)C1(Cl)CC1 (racemic) [Prothioconazole, 2-[(2RS)-2-(1-chlorocyclopropyl)-3-(2-chlorophenyl)-2-hydroxypropyl]-2H-1,2,4-triazole-3(4H)-thione] | 4.4 T/ha | 31% |  |  |  |  |  |  |  |  |  |  |  |  | Yield of Oilseed Rape (Sclerotinia sclerotiorum [1]; 173 g ai/ha): 4.49 T/ha; Percent (%) Incidence of Sclerotinia sclerotiorum at B65-B67 Growth Stage in Oilseed Rape (Sclerotinia sclerotiorum [1]; 173 g ai/ha): 20% |
| O=C(Nc1ccccc1-c1ccc(Cl)cc1)c1cccnc1Cl [Boscalid, boscalid] |  |  |  |  |  |  |  |  |  |  |  |  |  |  | Yield of Oilseed Rape (Sclerotinia sclerotiorum [1]; 250 g ai/ha): 4.34 T/ha; Percent (%) Incidence of Sclerotinia sclerotiorum at B65-B67 Growth Stage in Oilseed Rape (Sclerotinia sclerotiorum [1]; 250 g ai/ha): 4% |
| COc1ccnc(C(=O)N[C@H]2COC(=O)[C@H](Cc3ccccc3)[C@@H](OC(=O)C(C)C)[C@H](C)OC2=O)c1OCOC(=O)C(C)C [Compound I, (3S,6S,7R,8R)-8-benzyl-3-(3-((isobutyryloxy)methoxy)-4-methoxypicolinamido)-6-methyl-4,9-dioxo-1,5-dioxonan-7-yl isobutyrate] | 4.23 T/ha | 19% | 3.33 | 2.33 | 1.67 | 1.33 |  |  |  |  |  |  |  |  | inhibition at 0.1 ppm (Sclerotinia sclerotiorum [2]): 8.63%; inhibition at 1 ppm (Sclerotinia sclerotiorum [2]): 66.1%; inhibition at 10 ppm (Sclerotinia sclerotiorum [2]): 92.5%; inhibition at 100 ppm (Sclerotinia sclerotiorum [2]): 100%; Yield of Oilseed Rape (Sclerotinia sclerotiorum [1]; 100 g ai/ha): 4.22 T/ha; Percent (%) Incidence of Sclerotinia sclerotiorum at B65-B67 Growth Stage in Oilseed Rape (Sclerotinia sclerotiorum [1]; 100 g ai/ha): 24%; Yield of Oilseed Rape (Sclerotinia sclerotiorum [1]; 130 g ai/ha): 4.29 T/ha; Percent (%) Incidence of Sclerotinia sclerotiorum at B65-B67 Growth Stage in Oilseed Rape (Sclerotinia sclerotiorum [1]; 130 g ai/ha): 24%; Yield of Oilseed Rape (Sclerotinia sclerotiorum [1]; 200 g ai/ha): 4.48 T/ha; Percent (%) Incidence of Sclerotinia sclerotiorum at B65-B67 Growth Stage in Oilseed Rape (Sclerotinia sclerotiorum [1]; 200 g ai/ha): 14%; Percent (%) Incidence of Sclerotinia sclerotiorum at R7 Growth Stage on Dry Bean (Sclerotinia sclerotiorum [3]; 120 g ai/ha): 3.5%; Percent (%) Incidence of Sclerotinia sclerotiorum at R7 Growth Stage on Dry Bean (Sclerotinia sclerotiorum [3]; 240 g ai/ha): 1%; inhibition at 0.1 ppm (Sclerotinia sclerotiorum [4]): 28.3%; inhibition at 1 ppm (Sclerotinia sclerotiorum [4]): 72.4%; inhibition at 10 ppm (Sclerotinia sclerotiorum [4]): 80.7%; inhibition at 100 ppm (Sclerotinia sclerotiorum [4]): 91% |
| O=[N+]([O-])c1cc(C(F)(F)F)c(Cl)c([N+](=O)[O-])c1Nc1ncc(C(F)(F)F)cc1Cl [Fluazinam, fluazinam] |  |  | 5.7 | 4.3 | 0 | 0 | 25.9% | 53.5% | 66.1% | 100% | 59.7% | 71.6% | 82.6% | 100% | Percent (%) Incidence of Sclerotinia sclerotiorum at R7 Growth Stage on Dry Bean (Sclerotinia sclerotiorum [3]; 500 g ai/ha): 0.8% |
| CC12CC1(C)C(=O)N(c1cc(Cl)cc(Cl)c1)C2=O (centres unmarked) [Procymidone, procymidone] |  |  | 18.67 | 16.2 | 1.67 | 0 | 19.5% | 59.8% | 85.1% | 100% | 10% | 24.5% | 68.2% | 100% |  |
| COC(=O)NC(=S)Nc1ccccc1NC(=S)NC(=O)OC [Thiophanate-Methyl, thiophanate-methyl] |  |  | 19.25 | 17.56 | 0 | 0 | 20.7% | 43.1% | 87.4% | 100% | 0% | 32.2% | 78.3% | 100% |  |
